In one series the test system is C. albicans cells. Put plainly: microbe, parasite or virus in culture. The settings on record: for IC90: 24 h; for FICI: combination of peptide with caspofungin. The protocol:
To determine the viability of C. albicans, the 2,3-bis(2-methoxy-4-nitro-5-sulfo-phenyl)-2H-tetrazolium-5-carboxanilide (XTT) (ThermoFisher Scientific) reduction assay is used as a routine tool for quantitative measurement of fungal metabolic activity, growth and response to antifungal treatment ([van Dijck et al., 2018]). The tests were performed as described ([Kulig et al., 2022]) with some modifications. Briefly, 100 μl of RPMI 1640 medium without phenol red (Biowest) and 50 μl of XTT solution (1 mg/ml; Invitrogen, Waltham, MA, United States), freshly activated with phenazine methosulfate (5 μg/ml; Sigma-Aldrich) in the same medium, were added to C. albicans cells. After 40 min of incubation at 37°C in the dark, 100 μl of supernatants were transferred to the wells of a new 96-well microplate (Sarstedt, Nümbrecht, Germany). The absorbance of the formazan product was measured spectrophotometrically at 450 nm using a Synergy H1 microplate reader (BioTek Instruments, Winooski, VT, United States).
The following concentrations of peptides and antifungal drugs were used for the assay: ΔM3 0.4–50 μM, ΔM4 0.4–3.1 μM, amphotericin B 0.2–1.6 μM, fluconazole 0.2–1.6 μM and caspofungin 0.003–0.2 μM (the latter two from Sigma-Aldrich). The combinatory effects of each peptide and each conventional antimycotic drug were tested by the previously described checkerboard method ([Guo et al., 2008]; [Do Nascimento Dias et al., 2020]) with minor modification. C. albicans cells (3 × 10^2) were suspended in 100 μl of RPMI 1640 medium, containing peptide, drug, or their combination, in wells of Falcon® 96-well clear flat bottom TC-treated culture microplate (Corning). Fungal cells only in RPMI 1640 medium without peptides and drugs served as a control. Incubation was carried out for 24 h at 37°C in an atmosphere of 5% CO2 and 95% humidity without shaking. After this time, cell viability was measured using an XTT reduction assay. The analysis was performed in biological triplicate. For each combination, Fractional Inhibitory Concentration Index (FICI) was determined using the following formula: […]
Where FICa is the ratio of IC90 value for the compound a in combination to the IC90 value of the agent a alone; FICb is the ratio of IC90 value for compound b in combination to the IC90 value of the agent b alone.
The FICI ≤0.5 was interpreted as a synergistic effect, 0.5< FICI ≤1.0 as additive, 1.0< FICI ≤2.0 as indifferent and FICI >2.0 as antagonism.

The subject of the next series is human erythrocytes. The conditions noted are these: cited from earlier work. The text has this: Promising antimicrobial properties were also previously reported for the cecropin D-like peptide (UniProtKB accession number: P85210) from the greater wax moth Galleria mellonella ([Cytrynska et al., 2007]). Modification of particular residues resulting in an increase of peptide charge and basic residues on the polar face of the molecule compared to a neutral wild-type peptide, enhanced the antibacterial activity of peptides derived from the cecropin D-like natural sequence. One such type of derivative was the synthetic cationic peptide ΔM2 with 39 amino acid residues and a charge of +9, which ...

The test system of series [1] is cytosolic Ca2+ in C. albicans biofilm. The series is described as follows: Cytosolic Ca2+, Fura-2 Calcium Flux Assay. The format is cell-based, Candida albicans. The settings on record: 10 mM, positive control, 3 h, 24-h biofilm. On the procedure: Accumulation of cytosolic Ca^2+ was measured with the Fura-2 Calcium Flux Assay Kit (Abcam, Cambridge, Great Britain). The 24-h biofilms of C. albicans were incubated for 3 h with 100 μl of ΔM3 (25 μM and 50 μM) or ΔM4 (6.2 μM and 12.5 μM) and H2O2 (10 mM; positive control) solutions prepared in RPMI 1640. The concentration of peptides was chosen close to those for which the effect of apoptosis was obtained in experiments analyzing the activity of metacaspases. After incubation, biofilms were washed with Hanks Balanced Salt Solution (Biowest) with Pluronic® F127 Plus (Abcam). Then 100 μl of Fura-2 AM solution was added to the biofilms and incubated for 1 h at room temperature. The fluorescence was then measured using a Synergy H1 microplate reader with excitation at 340 nm and emission at 510 nm.
For orientation: A change in cytosolic calcium serves as a functional read-out for many receptors and channels.

The test system of series [2] is mitochondria of C. albicans biofilm cells. Put plainly: Mitochondrial activity, MitoTracker Orange / MitoTracker Green. The format is cell-based, Candida albicans. The conditions noted are these: 50 μM ΔM3, 6.2 μM ΔM4 or 2.7 μM amphotericin B, 3 h, 24-h biofilm. On the procedure:
The 24-h biofilms of C. albicans were incubated with 100 μl of ΔM3 (50 μM) or ΔM4 (6.2 μM) and amphotericin B (2.7 μM; positive control) solutions in RPMI 1640 medium for 3 h at 37°C. After that time, biofilms were washed with 200 μl of PBS and incubated for 30 min at 37°C with MitoTracker Green TM dye (Invitrogen) at final concentration of 500 nM, used to detect the change in total mitochondrial mass, and MitoTracker Orange (500 nM), used to detect the change in mitochondrial activity. Mitochondria were imaged in the FITC and TRIC channel, using the Olympus IX73 microscope.

[3] abbreviates: Candida albicans, read-out: IC90, compound acting alone.
[4] abbreviates: drug (compound a) in combination with ΔM3.
[5] abbreviates: drug (compound a) in combination with ΔM4.

Read-outs that look alike come from different tables or passages of the source. Where no end group is shown, it is not given here.

Broadly, the IC90 is the concentration needed for an effect of 90%. With NFFKRIRRAGKRIRKAIISA [ΔM3], in the series on C. albicans cells (cells), the IC90 was found to be 50000 nM. Also, the FICI with C. albicans cells stood at 0.062. Moreover, in the series on human erythrocytes, the hemolytic activity entry was “low”.
As for `OC(Cn1cncn1)(Cn1cncn1)c1ccc(F)cc1F` [Fluconazole, fluconazole], the IC90 with C. albicans cells (setting [3]) is 800 nM. Besides, the “IC90 in combination with each peptide compared to administered alone” value with C. albicans cells (combination with ΔM3 or ΔM4) was “four-fold lower”. Moreover, the FICa with C. albicans cells (setting [4]) and in the series with C. albicans cells (setting [5]) was 0.25 throughout.
With NFFKRIRRAWKRIWKWIYSA [ΔM4], the IC90 with C. albicans cells (cells) turned out to be 3100 nM. Moreover, the FICI in the series with C. albicans cells turned out to be 0.370.
On to `OO` [H2O2], for which, in series [1], the “increase in cytosolic Ca2+ concentration” value is “up to 50%”.
In the case of `C[C@@H]1[C@H](O)[C@@H](C)/C=C/C=C/C=C/C=C/C=C/C=C/C=C/[C@H](O[C@@H]2O[C@H](C)[C@@H](O)[C@H](N)[C@@H]2O)C[C@@H]2O[C@](O)(C[C@@H](O)C[C@@H](O)[C@H](O)CC[C@@H](O)C[C@@H](O)CC(=O)O[C@H]1C)C[C@H](O)[C@H]2C(=O)O` [Amphotericin B, amphotericin B], in series [2], the “mitochondrial activity (MitoTracker Orange fluorescence)” value is on record as “partial loss of mitochondrial activity”. Moreover, the IC90 in the series on C. albicans cells (setting [3]) worked out at 1600 nM. The FICa with C. albicans cells (setting [4]) and with C. albicans cells (setting [5]) was 0.5 in each case.
As for `CC[C@H](C)C[C@H](C)CCCCCCCCC(=O)N[C@H]1C[C@@H](O)[C@@H](NCCN)NC(=O)[C@@H]2[C@@H](O)CCN2C(=O)[C@H]([C@H](O)CCN)NC(=O)[C@H]([C@H](O)[C@@H](O)c2ccc(O)cc2)NC(=O)[C@@H]2C[C@@H](O)CN2C(=O)[C@H]([C@@H](C)O)NC1=O` [Caspofungin, caspofungin], the IC90 in the series with C. albicans cells (setting [3]) came to 100 nM. Besides, the FICa in the series with C. albicans cells (setting [4]) turned out to be 0.03; in the series on C. albicans cells (setting [5]), 0.12.

The record behind these values is PMC9880178, “Cecropin D-derived synthetic peptides in the fight against Candida albicans cell filamentation and biofilm formation” (Frontiers in Microbiology, 2023).
